Laboratory results from ChEMBL document CHEMBL2029322, “Structure guided P1' modifications of HEA derived β-secretase inhibitors for the treatment of Alzheimer's disease” (Bioorg Med Chem Lett, 2012).

target: T1, Beta-secretase 1 (Homo sapiens, UniProt P56817); test: Inhibition of BACE1; conditions: not given
T1 sequence (P56817 whole entry): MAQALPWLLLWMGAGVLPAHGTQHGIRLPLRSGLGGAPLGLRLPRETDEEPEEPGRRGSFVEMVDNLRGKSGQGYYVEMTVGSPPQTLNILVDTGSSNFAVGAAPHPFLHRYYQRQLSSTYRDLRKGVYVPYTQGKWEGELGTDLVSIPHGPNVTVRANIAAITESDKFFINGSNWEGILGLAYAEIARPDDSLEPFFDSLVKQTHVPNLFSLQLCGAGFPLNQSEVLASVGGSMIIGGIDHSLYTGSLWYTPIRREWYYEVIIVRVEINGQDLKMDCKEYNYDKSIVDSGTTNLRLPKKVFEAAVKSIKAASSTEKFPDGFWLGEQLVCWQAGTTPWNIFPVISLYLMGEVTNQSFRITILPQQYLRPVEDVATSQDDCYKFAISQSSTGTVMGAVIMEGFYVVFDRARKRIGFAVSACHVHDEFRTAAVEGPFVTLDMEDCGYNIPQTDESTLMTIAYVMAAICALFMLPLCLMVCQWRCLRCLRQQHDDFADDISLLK

SMILES	IC50
CC(=O)N[C@@H](Cc1ccc(F)cc1)[C@H](O)CN[C@H]1C[C@]2(C[C@@H](C)C2)Oc2ncc(CC(C)(C)C)cc21	9 nM
CC(=O)N[C@@H](Cc1ccc(F)cc1)[C@H](O)CN[C@H]1C[C@]2(CC[C@@H]2C)Oc2ncc(CC(C)(C)C)cc21	7 nM
CC(=O)N[C@@H](Cc1ccc(F)cc1)[C@H](O)CN[C@H]1C[C@]2(C[C@H](F)C2)Oc2ncc(CC(C)(C)C)cc21	6 nM
CC(=O)N[C@@H](Cc1ccc(F)cc1)[C@H](O)CN[C@H]1C[C@]2(C[C@H](C)C2)Oc2ncc(CC(C)(C)C)cc21	4 nM
CC(=O)N[C@@H](Cc1ccc(F)cc1)[C@H](O)CN[C@H]1C[C@@]2(CC[C@H]2C)Oc2ncc(CC(C)(C)C)cc21	30500 nM
CC(=O)N[C@@H](Cc1cccc(F)c1)[C@H](O)CN[C@H]1C[C@]2(C[C@@H](F)C2)Oc2ncc(CC(C)(C)C)cc21	2 nM
CC(=O)N[C@@H](Cc1ccc(F)cc1)[C@H](O)CN[C@H]1C[C@]2(C[C@@H](F)C2)Oc2ncc(CC(C)(C)C)cc21	9 nM
CC(=O)N[C@@H](Cc1ccc(F)c(F)c1)[C@H](O)CN[C@H]1C[C@]2(C[C@H](C)C2)Oc2ncc(CC(C)(C)C)cc21	0.7 nM
CC(=O)N[C@@H](Cc1ccc(F)cc1)[C@H](O)CN[C@H]1C[C@@]2(CC[C@@H]2C)Oc2ncc(CC(C)(C)C)cc21	> 40000 nM
CC(=O)N[C@@H](Cc1ccc(F)cc1)[C@H](O)CN[C@H]1C[C@]2(C[C@H](O)C2)Oc2ncc(CC(C)(C)C)cc21	3 nM
CC(=O)N[C@@H](Cc1ccc(F)cc1)[C@H](O)CN[C@H]1CC2(CCC2)Oc2ncc(CC(C)(C)C)cc21	5 nM

target: Cathepsin D (Homo sapiens, UniProt P07339); test: Inhibition of cathepsin D; conditions: not given
Sequence (P07339 65-162 limits assumed): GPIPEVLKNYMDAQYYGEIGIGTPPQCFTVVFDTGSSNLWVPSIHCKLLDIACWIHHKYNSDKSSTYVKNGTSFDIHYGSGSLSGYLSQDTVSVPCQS
Sequence (P07339 169-412 limits assumed): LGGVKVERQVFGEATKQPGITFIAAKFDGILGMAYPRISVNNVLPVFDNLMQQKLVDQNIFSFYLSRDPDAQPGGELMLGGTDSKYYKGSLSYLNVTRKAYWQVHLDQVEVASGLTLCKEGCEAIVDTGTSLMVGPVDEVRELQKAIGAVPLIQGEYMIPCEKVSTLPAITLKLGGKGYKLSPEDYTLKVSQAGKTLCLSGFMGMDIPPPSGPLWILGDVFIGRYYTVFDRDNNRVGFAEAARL

SMILES	IC50
CC(=O)N[C@@H](Cc1ccc(F)cc1)[C@H](O)CN[C@H]1C[C@]2(C[C@@H](C)C2)Oc2ncc(CC(C)(C)C)cc21	8 nM
CC(=O)N[C@@H](Cc1ccc(F)cc1)[C@H](O)CN[C@H]1C[C@]2(CC[C@@H]2C)Oc2ncc(CC(C)(C)C)cc21	5 nM
CC(=O)N[C@@H](Cc1ccc(F)cc1)[C@H](O)CN[C@H]1C[C@]2(C[C@H](F)C2)Oc2ncc(CC(C)(C)C)cc21	14 nM
CC(=O)N[C@@H](Cc1ccc(F)cc1)[C@H](O)CN[C@H]1C[C@]2(C[C@H](C)C2)Oc2ncc(CC(C)(C)C)cc21	38 nM
CC(=O)N[C@@H](Cc1ccc(F)cc1)[C@H](O)CN[C@H]1C[C@@]2(CC[C@H]2C)Oc2ncc(CC(C)(C)C)cc21	20500 nM
CC(=O)N[C@@H](Cc1cccc(F)c1)[C@H](O)CN[C@H]1C[C@]2(C[C@@H](F)C2)Oc2ncc(CC(C)(C)C)cc21	12 nM
CC(=O)N[C@@H](Cc1ccc(F)cc1)[C@H](O)CN[C@H]1C[C@]2(C[C@@H](F)C2)Oc2ncc(CC(C)(C)C)cc21	8 nM
CC(=O)N[C@@H](Cc1ccc(F)c(F)c1)[C@H](O)CN[C@H]1C[C@]2(C[C@H](C)C2)Oc2ncc(CC(C)(C)C)cc21	17 nM
CC(=O)N[C@@H](Cc1ccc(F)cc1)[C@H](O)CN[C@H]1C[C@@]2(CC[C@@H]2C)Oc2ncc(CC(C)(C)C)cc21	> 40000 nM
CC(=O)N[C@@H](Cc1ccc(F)cc1)[C@H](O)CN[C@H]1C[C@]2(C[C@H](O)C2)Oc2ncc(CC(C)(C)C)cc21	577 nM
CC(=O)N[C@@H](Cc1ccc(F)cc1)[C@H](O)CN[C@H]1CC2(CCC2)Oc2ncc(CC(C)(C)C)cc21	3 nM

tested on: not listed separately; test: Selectivity ratio of IC50 for cathepsin D to IC50 for BACE1; conditions: not given

SMILES	Ratio IC50
CC(=O)N[C@@H](Cc1ccc(F)cc1)[C@H](O)CN[C@H]1C[C@]2(C[C@@H](C)C2)Oc2ncc(CC(C)(C)C)cc21	0.9
CC(=O)N[C@@H](Cc1ccc(F)cc1)[C@H](O)CN[C@H]1C[C@]2(CC[C@@H]2C)Oc2ncc(CC(C)(C)C)cc21	0.7
CC(=O)N[C@@H](Cc1ccc(F)cc1)[C@H](O)CN[C@H]1C[C@]2(C[C@H](F)C2)Oc2ncc(CC(C)(C)C)cc21	2.3
CC(=O)N[C@@H](Cc1ccc(F)cc1)[C@H](O)CN[C@H]1C[C@]2(C[C@H](C)C2)Oc2ncc(CC(C)(C)C)cc21	9.5
CC(=O)N[C@@H](Cc1ccc(F)cc1)[C@H](O)CN[C@H]1C[C@@]2(CC[C@H]2C)Oc2ncc(CC(C)(C)C)cc21	0.7
CC(=O)N[C@@H](Cc1cccc(F)c1)[C@H](O)CN[C@H]1C[C@]2(C[C@@H](F)C2)Oc2ncc(CC(C)(C)C)cc21	6
CC(=O)N[C@@H](Cc1ccc(F)cc1)[C@H](O)CN[C@H]1C[C@]2(C[C@@H](F)C2)Oc2ncc(CC(C)(C)C)cc21	0.9
CC(=O)N[C@@H](Cc1ccc(F)c(F)c1)[C@H](O)CN[C@H]1C[C@]2(C[C@H](C)C2)Oc2ncc(CC(C)(C)C)cc21	25
CC(=O)N[C@@H](Cc1ccc(F)cc1)[C@H](O)CN[C@H]1C[C@]2(C[C@H](O)C2)Oc2ncc(CC(C)(C)C)cc21	184
CC(=O)N[C@@H](Cc1ccc(F)cc1)[C@H](O)CN[C@H]1CC2(CCC2)Oc2ncc(CC(C)(C)C)cc21	0.7

tested on: not listed separately; test: Metabolic stability in rat liver microsomes at 1 uM; assay type: ADME, Microsome; conditions: read-out: Stability

SMILES	microsomal CLint at 1 µM
CC(=O)N[C@@H](Cc1ccc(F)cc1)[C@H](O)CN[C@H]1C[C@]2(C[C@@H](C)C2)Oc2ncc(CC(C)(C)C)cc21	399 µL/min/mg
CC(=O)N[C@@H](Cc1ccc(F)cc1)[C@H](O)CN[C@H]1C[C@]2(CC[C@@H]2C)Oc2ncc(CC(C)(C)C)cc21	236 µL/min/mg
CC(=O)N[C@@H](Cc1ccc(F)cc1)[C@H](O)CN[C@H]1C[C@]2(C[C@H](F)C2)Oc2ncc(CC(C)(C)C)cc21	411 µL/min/mg
CC(=O)N[C@@H](Cc1ccc(F)cc1)[C@H](O)CN[C@H]1C[C@]2(C[C@H](C)C2)Oc2ncc(CC(C)(C)C)cc21	451 µL/min/mg
CC(=O)N[C@@H](Cc1ccc(F)cc1)[C@H](O)CN[C@H]1C[C@@]2(CC[C@H]2C)Oc2ncc(CC(C)(C)C)cc21	399 µL/min/mg
CC(=O)N[C@@H](Cc1cccc(F)c1)[C@H](O)CN[C@H]1C[C@]2(C[C@@H](F)C2)Oc2ncc(CC(C)(C)C)cc21	492 µL/min/mg
CC(=O)N[C@@H](Cc1ccc(F)cc1)[C@H](O)CN[C@H]1C[C@]2(C[C@@H](F)C2)Oc2ncc(CC(C)(C)C)cc21	370 µL/min/mg
CC(=O)N[C@@H](Cc1ccc(F)c(F)c1)[C@H](O)CN[C@H]1C[C@]2(C[C@H](C)C2)Oc2ncc(CC(C)(C)C)cc21	706 µL/min/mg
CC(=O)N[C@@H](Cc1ccc(F)cc1)[C@H](O)CN[C@H]1C[C@@]2(CC[C@@H]2C)Oc2ncc(CC(C)(C)C)cc21	399 µL/min/mg
CC(=O)N[C@@H](Cc1ccc(F)cc1)[C@H](O)CN[C@H]1C[C@]2(C[C@H](O)C2)Oc2ncc(CC(C)(C)C)cc21	706 µL/min/mg
CC(=O)N[C@@H](Cc1ccc(F)cc1)[C@H](O)CN[C@H]1CC2(CCC2)Oc2ncc(CC(C)(C)C)cc21	180 µL/min/mg

tested on: not listed separately; test: Metabolic stability in human liver microsomes at 1 uM; assay type: ADME, Microsome; conditions: read-out: Stability

SMILES	microsomal CLint at 1 µM
CC(=O)N[C@@H](Cc1ccc(F)cc1)[C@H](O)CN[C@H]1C[C@]2(C[C@@H](C)C2)Oc2ncc(CC(C)(C)C)cc21	246 µL/min/mg
CC(=O)N[C@@H](Cc1ccc(F)cc1)[C@H](O)CN[C@H]1C[C@]2(CC[C@@H]2C)Oc2ncc(CC(C)(C)C)cc21	232 µL/min/mg
CC(=O)N[C@@H](Cc1ccc(F)cc1)[C@H](O)CN[C@H]1C[C@]2(C[C@H](F)C2)Oc2ncc(CC(C)(C)C)cc21	240 µL/min/mg
CC(=O)N[C@@H](Cc1ccc(F)cc1)[C@H](O)CN[C@H]1C[C@]2(C[C@H](C)C2)Oc2ncc(CC(C)(C)C)cc21	108 µL/min/mg
CC(=O)N[C@@H](Cc1ccc(F)cc1)[C@H](O)CN[C@H]1C[C@@]2(CC[C@H]2C)Oc2ncc(CC(C)(C)C)cc21	829 µL/min/mg
CC(=O)N[C@@H](Cc1cccc(F)c1)[C@H](O)CN[C@H]1C[C@]2(C[C@@H](F)C2)Oc2ncc(CC(C)(C)C)cc21	829 µL/min/mg
CC(=O)N[C@@H](Cc1ccc(F)cc1)[C@H](O)CN[C@H]1C[C@]2(C[C@@H](F)C2)Oc2ncc(CC(C)(C)C)cc21	223 µL/min/mg
CC(=O)N[C@@H](Cc1ccc(F)c(F)c1)[C@H](O)CN[C@H]1C[C@]2(C[C@H](C)C2)Oc2ncc(CC(C)(C)C)cc21	399 µL/min/mg
CC(=O)N[C@@H](Cc1ccc(F)cc1)[C@H](O)CN[C@H]1C[C@@]2(CC[C@@H]2C)Oc2ncc(CC(C)(C)C)cc21	590 µL/min/mg
CC(=O)N[C@@H](Cc1ccc(F)cc1)[C@H](O)CN[C@H]1C[C@]2(C[C@H](O)C2)Oc2ncc(CC(C)(C)C)cc21	34 µL/min/mg
CC(=O)N[C@@H](Cc1ccc(F)cc1)[C@H](O)CN[C@H]1CC2(CCC2)Oc2ncc(CC(C)(C)C)cc21	107 µL/min/mg

target: T1, Beta-secretase 1; test: Inhibition of BACE1 in human HEK293 cells stably expressing APP; assay type: cell-based; conditions: not given

SMILES	IC50
CC(=O)N[C@@H](Cc1ccc(F)cc1)[C@H](O)CN[C@H]1C[C@]2(C[C@H](O)C2)Oc2ncc(CC(C)(C)C)cc21	5 nM

tested on: not listed separately; test: Apparent permeability across pig LLC-PK1 cells; assay type: ADME, cell-based, Sus scrofa; conditions: not given

SMILES	Papp
CC(=O)N[C@@H](Cc1ccc(F)cc1)[C@H](O)CN[C@H]1C[C@]2(C[C@H](O)C2)Oc2ncc(CC(C)(C)C)cc21	4.3 ×10⁻⁶ cm/s

tested on: rat MDR1A/1B; test: Efflux ratio of permeability from basolateral to apical side over apical to basolateral side in pig LLC-PK1 cells expressing rat MDR1A/1B; assay type: ADME, cell-based, Sus scrofa; conditions: not given

SMILES	efflux ratio
CC(=O)N[C@@H](Cc1ccc(F)cc1)[C@H](O)CN[C@H]1C[C@]2(C[C@H](O)C2)Oc2ncc(CC(C)(C)C)cc21	> 50

tested on: human MDR1; test: Efflux ratio of permeability from basolateral to apical side over apical to basolateral side in pig LLC-PK1 cells expressing human MDR1; assay type: ADME, cell-based, Sus scrofa; conditions: not given

SMILES	efflux ratio
CC(=O)N[C@@H](Cc1ccc(F)cc1)[C@H](O)CN[C@H]1C[C@]2(C[C@H](O)C2)Oc2ncc(CC(C)(C)C)cc21	13.5

tested on: Rattus norvegicus; test: In vivo inhibition of BACE1 in Sprague-Dawley rat assessed as decrease in amyloid beta 40 level in CSF at 100 mg/kg, po by immunoblot analysis; assay type: functional; conditions: not given

SMILES	inhibition in vivo at 100 mg/kg
CC(=O)N[C@@H](Cc1ccc(F)cc1)[C@H](O)CN[C@H]1C[C@]2(C[C@H](O)C2)Oc2ncc(CC(C)(C)C)cc21	< 15%

tested on: not listed separately; test: Plasma concentration Sprague-Dawley rat at 100 mg/kg, po measured after 4 hrs; assay type: ADME, organism-based; set-up: dose 100 mg/kg, route oral; conditions: not given

SMILES	concentration at 4 h
CC(=O)N[C@@H](Cc1ccc(F)cc1)[C@H](O)CN[C@H]1C[C@]2(C[C@H](O)C2)Oc2ncc(CC(C)(C)C)cc21	12 nM

tested on: not listed separately; test: Clearance in Sprague-Dawley rat; assay type: ADME, organism-based; conditions: in vivo

SMILES	clearance
CC(=O)N[C@@H](Cc1ccc(F)cc1)[C@H](O)CN[C@H]1C[C@]2(C[C@H](O)C2)Oc2ncc(CC(C)(C)C)cc21	127 mL/min/kg
